# Source: publication PMC8538783, “Green Oxidation of Amines by a Novel Cold-Adapted Monoamine Oxidase MAO P3 from Psychrophilic Fungi Pseudogymnoascus sp. P3” (Molecules, 2021)
# Values joined by “and” are separate entries in the source; they are usually repeats but may differ in a detail not shown here. Equal entries are not always repeated. Where two headings read alike, the source gives them in different places.
# What was measured:
# MAO P3 [1] = test: Initial oxidation screening: bioconversion of amine substrates by cell-free extract, GC-MS; format: biochemical, Pseudogymnoascus sp. P3; settings: for Rate of Oxidation: 10 mM substrate, 10 mM potassium phosphate buffer pH 7.2, cell-free intracellular extract of P3 strain, 4 h at 30 °C, relative to compound 9 = 100%
# Method: (§1) Substrate specificity of MAO P3 was examined towards sixteen amine substrates (listed in Table 3) that differed in the number of carbons and various substitutions. Bioconversion was carried out in 5 mL glass tubes (Schott, Germany), where the total volume of the reaction was 2.5 mL and was comprised of 1 mL of MAO P3 (1 U/mL), where the cell-free extracts were used for the initial oxidation screening and the purified enzyme, for substrate specificity. An amount of 0.75 mL of a substrate (in the range of concentrations between 10 and 100 mM) was resuspended in 0.1 M potassium phosphate pH 7.2, and 0.75 mL of 10 mM potassium phosphate buffer pH 7.2. Initial oxidation screening was carried out for 4 h at 30 °C, 810 rpm. The substrate specificity was measured at 30 °C; reactions were carried out for 5 h, 810 rpm. In order to analyze the products of the bioconversion, samples were first neutralized by the addition of 0.25 mL of 1 M NaOH. An amount of 0.5 mL of dichloromethane was added to samples and incubated at room temperature with shaking for 1 min. The samples were centrifuged for 5 min, 5000 rpm, 4 °C. The organic phase was collected for the gas chromatography-mass spectrometry (GC-MS) analysis. The Km values were calculated based on […] curves (see the Supplementary Materials).
# Samples were injected with the GerstelMultiPurpose sampler (MPS 2). […] Helium was used as a carrier gas with a flow rate of 1.5 mL/min. The injector temperature was held at 250 °C. The oven temperature was initially held at 40 °C for 2 min, ramped up to 200 °C by 10 °C/min; the total run time was 20 min. The detector was operated in EI mode with the transfer line maintained at 280 °C. All substrates were purchased from MerckMillipore, USA, and quantified by GC analysis based on their peak areas and calibration curves prepared for each individual. GC-MS spectra are presented in the Supplementary Materials.
# MAO P3 [2] = test: as above; format: biochemical, Pseudogymnoascus sp. P3; settings: 24 h of incubation at 30 °C with shaking
# MAO P3 [3] = test: Substrate specificity (Vmax, Km) of purified MAO P3, GC-MS; format: biochemical, Pseudogymnoascus sp. P3
# Method: as §1
# GC-MS analyses were carried out on a Pegasus 4D (LECO, USA) apparatus, equipped with an Agilent 6890N gas chromatograph coupled with a time-of-flight mass spectrometer (LECO, Saint Joseph, MI, USA). Samples were injected with the GerstelMultiPurpose sampler (MPS 2). The GC was fitted with a BPX5 capillary column of 30 m × 0.25 mm × 0.25 µm (SGE). Helium was used as a carrier gas with a flow rate of 1.5 mL/min. The injector temperature was held at 250 °C. The oven temperature was initially held at 40 °C for 2 min, ramped up to 200 °C by 10 °C/min; the total run time was 20 min. The detector was operated in EI mode with the transfer line maintained at 280 °C. All substrates were purchased from MerckMillipore, USA, and quantified by GC analysis based on their peak areas and calibration curves prepared for each individual. GC-MS spectra are presented in the Supplementary Materials.
# Method S3. Determination of Km and Vmax values based on Lineweaver-Burk curves
# The double-reciprocal curve was create based on the inverse initial velocity as a function of the inverse substrate
# concentration. Curves were created for each amine substrate (Fig. S2), based on the results of GC-MS analysis (Paragraph
# Figure S4. The double-reciprocal curves for MAO P3 amines substrates: A. 3-azabicyclo[3.3.0]octane;
# B. hexamethyleneimine; C. 6,6-dimethyl-3-azabicyclohexane; D. cyclopentylamine; E. α-methylbenzylamine;
# F. pyrrolidine; G. sec-butylamine; H. indoline.
# (1 picture or pasted object on this page, not shown here)
# native MAO N = settings: cited from earlier work
# MAO N D5 = tested on: MAO N D5; design: method as in PMID 20146293; settings: recombinant MAO N D5; cited from earlier work
# MAO P3 [4] = test: Inhibition analysis of MAO P3 by clorgyline, colorimetric guaiacol/peroxidase assay; format: biochemical, Pseudogymnoascus sp. P3; settings: preincubated 30 min at 30 °C; substrate 6,6-dimethyl-3-azabicyclohexane
# Method: The enzyme was preincubated with different concentrations (from 0.1 to 10^−8 mM) of clorgyline (MerckMillipore, Burlington, MA, USA) for 30 min at 30 °C. MAO P3 activity was measured according to the above-mentioned procedure. Clorgyline solution (1 mM) was prepared in 10 mM potassium phosphate buffer pH 7.2.
# MAO A = tested on: MAO A; design: method as in PMID 11134050; settings: cited from earlier work
# MAO N (N338S, M348K) = tested on: MAO N (N338S, M348K); design: method as in PMID 12207381; settings: MAO N with two point mutations (N338S, M348K); cited from earlier work
# MAO = test: Colorimetric MAO activity assay of intracellular protein extract of P3 strain; format: biochemical, Pseudogymnoascus sp. P3; settings: 30 °C, 30 min
# Method: (§2) The activity of MAO P3 was measured by a colorimetric method which is based on the formation of orange-brownish tetraguaiacol in the presence of H2O2 and peroxidase (insert in Figure 2A). The reaction mixture contained 0.5 mL of the enzyme sample, 0.25 mL of 10 mM potassium phosphate buffer pH 7.2, 0.25 mL of 20 mM amine substrate (to identify a potential MAO producer, primary–n-butylamine, and secondary–6,6-dimethyl-3-azabicyclohexane, amines were used), 0.02 mL of peroxidase (90 U/mL), and 0.4 mL of 0.02 M guaiacol (all reagents from MerckMillipore, Burlington, MA, USA). The reaction mixture was incubated at 30 °C for 30 min.
# The absorbance of the samples was measured at 436 nm on the UV/visible spectrophotometer (UV-1800 Shimatdsu, Kyoto, Japan). A unit of enzyme activity was defined as the amount of enzyme that catalyzes the formation of 1.0 μmol of H2O2 per min.
# Figure 2 MAO biosynthesis in 14 psychrophilic fungi strains. The activity was measured towards a primary amine (n-butylamine) and a secondary amine (6,6-dimethyl-3-azabicyclohexane), for each substrate. The reaction was carried out at 30 °C for 30 min with continuous shaking in 10 mM potassium phosphate buffer […]. (A) Activity after the growth in the induction medium, without inoculation from a solid culture; insert: scheme of the measurement of MAO activity in psychrophilic fungi strains; absorbance of tetraguaiacol is measured at 436 nm. (B) Activity after the growth in the induction medium, with inoculation from a solid culture.
# Pseudogymnoascus sp. P3 = format: cell-based
# Method: The 125 mL cultures were inoculated from the glycerol stocks. The strains were cultured at 20 °C for 14 days with shaking at 100 rpm in 0.5 L flasks. The growth medium was composed of 3% (w/v) glucose, 0.1% (w/v) KH2PO4, 0.05% (w/v) MgSO4, 0.05% (w/v) KCl, and 0.1% (w/v) NaNO3, which was replaced by 0.1% (v/v) of n-butylamine (MAO inducer) in the induction medium. The concentration of n-butylamine was optimized (tested concentrations: 0.01, 0.03, 0.05, 0.10, 0.15, 0.20, and 0.50%) to maximize the biosynthesis of MAO. The mycelium was collected by filtration, wet mass was weighed and used for further experiments.
# as §2
# MAO P3 [5] = test: Effect of extra FAD in the reaction mixture on MAO P3 activity; format: biochemical, Pseudogymnoascus sp. P3; settings: 0.2 mM FAD in reaction mixture, compared to holoenzyme without supplementation of FAD
# Method: as §2
# Reconstruction of flavoprotein MAO P3 was carried out in 10 mM potassium phosphate buffer pH 7.2 in a total volume of 5 mL, with different conditions of: FAD concentration (5, 10, 15, 20, 25, and 50 μM), temperature (5, 10, 15, 20, 25, and 30 °C), and time of incubation (from 10 min to 60 min). After incubation, extra FAD was removed by centrifugation at 5000 rpm, 4 °C, 20 min in Centricon concentrators of MWCO of 10 kDa (MerckMillipore, Burlington, MA, USA). The absorption spectrum was measured on a flat-bottom 96-well plate on a MultiScanGo plate reader (ThermoFisher Scientific, Waltham, MA, USA).
# [6] = purified MAO P3 1 U/mL, 0.1 M potassium phosphate buffer pH 7.2, 30 °C
# [7] = induction medium inoculated from glycerol stock (no solid preculture)
# [8] = inoculation from solid culture (7 days, 20 °C)
compound,measurement,setting,value
"NC(c1ccccc1)c1ccccc1 [Substrate 14, benzylhydrylamine]",oxidation/conversion by MAO P3 (in words),MAO P3 [1],not able to oxidize
same,Rate of Oxidation,MAO P3 [1],0%
same,conversion by MAO P3 after prolonged incubation (in words),MAO P3 [2],unconverted
"NCCN1CCCC1 [Substrate 13, 1-(2-aminoethyl)pyrrolidine]",oxidation/conversion by MAO P3 (in words),MAO P3 [1],no activity
same,Rate of Oxidation,MAO P3 [1],0%
same,conversion by MAO P3 after prolonged incubation (in words),MAO P3 [2],unconverted
"c1ccc2c(c1)CCN2 [Substrate 12, indoline]",Rate of Oxidation,MAO P3 [1],9%
same,Km,MAO P3 [3]; pH 7.2,20400 µM
same,Vmax,MAO P3 [3]; [6],0.14 mM/h
"O=C1NC2C=CC1C2 (centres unmarked) [Substrate 7, 2-azabicyclo[2.2.1]hept-5-en-3-one]",Rate of Oxidation,MAO P3 [1],0%
NCc1ccccc1 [benzylamine],Km,native MAO N,240 µM
same,kcat,native MAO N,6.18 s⁻¹
"C1CCCNCC1 [Substrate 6, hexamethyleneimine]",Rate of Oxidation,MAO P3 [1],30%
same,Km,MAO P3 [3]; [6],2640 µM and 2560 µM
same,Vmax,MAO P3 [3]; [6],0.72 mM/h
"C1CC[C@H]2CNC[C@H]2C1 [Substrate 11, cis-8-azabicyclo[4.3.0]nonane]",Rate of Oxidation,MAO P3 [1],0%
same,conversion by MAO P3 after prolonged incubation (in words),MAO P3 [2],unconverted
same,rate of initial oxidation,MAO N D5,19%
C#CCN(C)CCCOc1ccc(Cl)cc1Cl [clorgyline],IC50,MAO P3 [4],18 nM
same,IC50,MAO A,1.2 nM
same,low concentration that inhibits MAO A,MAO A,10^−8 M
"CCC(C)N (centres unmarked) [Substrate 1, sec-butylamine]",Rate of Oxidation,MAO P3 [1],29%
same,Km,MAO P3 [3]; [6],18000 µM
same,Vmax,MAO P3 [3]; [6],0.17 mM/h
CCCCCN [amylamine],kcat,native MAO N,16.67 s⁻¹
CCCCCCN [hexylamine],Km,native MAO N,200 µM
"c1ccncc1 [Substrate 8, pyridine]",Rate of Oxidation,MAO P3 [1],0%
"CC(N)c1ccccc1 (stereo not drawn) [Substrate 5, α-methylbenzylamine]",Rate of Oxidation,MAO P3 [1],41%
same,Km,MAO P3 [3]; [6],4100 µM and 4130 µM
same,Vmax,MAO P3 [3]; [6],0.27 mM/h
same,kcat,native MAO N,0.00283 s⁻¹
same,Km,"MAO N (N338S, M348K)",400 µM
NCCc1ccccc1 [2-phenethylamine],Km,native MAO N,100 µM
"C1CC2CNCC2C1 (centres unmarked) [Substrate 10, 3-azabicyclo[3.3.0]octane]",Rate of Oxidation,MAO P3 [1],67%
same,Km,MAO P3 [3]; [6],10400 µM
same,Vmax,MAO P3 [3]; [6],0.24 mM/h
same,rate of initial oxidation,MAO N D5,16%
"C1CCNC1 [Substrate 3, pyrrolidine]",Rate of Oxidation,MAO P3 [1],36%
same,Km,MAO P3 [3]; [6],14300 µM
same,Vmax,MAO P3 [3]; [6],0.16 mM/h
"CC1(C)C2CNCC21 (centres unmarked) [Substrate 9, 6,6-dimethyl-3-azabicyclo[3.1.0]hexane]",Rate of Oxidation,MAO P3 [1],100%
same,Km,MAO P3 [3]; [6],2400 µM
same,Vmax,MAO P3 [3]; [6],1.1 mM/h
same,MAO activity towards the amine,MAO; [7],959 ± 7.2 U/L
same,MAO activity towards the amine,MAO; [8],1470 ± 10.6 U/L
CCCN [propylamine],Km,native MAO N,1600 µM
CCCCN [n-butylamine],MAO activity towards the amine,MAO; [7],910 ± 4.8 U/L
same,MAO activity towards the amine,MAO; [8],1350 ± 10.5 U/L
same,effect on the psychrophilic strains,Pseudogymnoascus sp. P3,acted deadly
same,Relative Activity of MAO P3,Pseudogymnoascus sp. P3; 0.01% n-butylamine in induction medium,6.4 ± 0.31%
same,Relative Activity of MAO P3,Pseudogymnoascus sp. P3; 0.03% n-butylamine in induction medium,19.9 ± 0.31%
same,Relative Activity of MAO P3,Pseudogymnoascus sp. P3; 0.05% n-butylamine in induction medium,30.7 ± 0.20%
same,Relative Activity of MAO P3,Pseudogymnoascus sp. P3; 0.10% n-butylamine in induction medium,100.0%
same,Relative Activity of MAO P3,Pseudogymnoascus sp. P3; 0.15% n-butylamine in induction medium,45.9 ± 0.34%
same,Relative Activity of MAO P3,Pseudogymnoascus sp. P3; 0.20% n-butylamine in induction medium,9.6 ± 0.20%
same,Relative Activity of MAO P3,Pseudogymnoascus sp. P3; 0.50% n-butylamine in induction medium,0.0%
same,Km,native MAO N,600 µM
"NC1CCCC1 [Substrate 2, cyclopentylamine]",Rate of Oxidation,MAO P3 [1],31%
same,Km,MAO P3 [3]; [6],8220 µM
same,Vmax,MAO P3 [3]; [6],0.47 mM/h
"CN1CCCC1 [Substrate 4, 1-methylpyrrolidine]",oxidation/conversion by MAO P3 (in words),MAO P3 [1],no activity
same,Rate of Oxidation,MAO P3 [1],0%
same,conversion by MAO P3 after prolonged incubation (in words),MAO P3 [2],unconverted
"NCCCCNCCCN [Substrate 16, spermidine]",oxidation/conversion by MAO P3 (in words),MAO P3 [1],not able to convert
same,Rate of Oxidation,MAO P3 [1],0%
"NCCCCN [Substrate 15, putrescine]",oxidation/conversion by MAO P3 (in words),MAO P3 [1],not able to convert
same,Rate of Oxidation,MAO P3 [1],0%
"Cc1cc2nc3c(=O)[nH]c(=O)nc-3n(C[C@H](O)[C@H](O)[C@H](O)COP(=O)(O)OP(=O)(O)OC[C@H]3O[C@@H](n4cnc5c(N)ncnc54)[C@H](O)[C@@H]3O)c2cc1C [FAD, flavin adenine dinucleotide]",change of MAO P3 activity,MAO P3 [5],increased two-fold
